Values after ≈ are worked out from the molar mass of the structure shown. Like-named read-outs stand apart in the source and are kept apart here.
Experiments:
Type in all cases: cell-based
[1] = test system: spores of ATCC 630 strain; experiment: Inhibition of germination of C. difficile spores (MIC), strain ATCC 630; settings: Clostridioides difficile, ATCC630, 1 h, read-out: MIC (minimum concentration that completely inhibits spore germination)
Summary of the method: (§1)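 Spores heat-activated for 30 min at 65° C and washed, then preincubated with compound (10 mM DMSO stock) in BHIS at 37° C. Germination was triggered with sodium taurocholate, and OD580 was read each minute for 60 min. Inhibition = 100% − germination rate, from final vs initial OD relative to germinant-only controls.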

[2] = test system: spores of ATCC 43255 strain; experiment: Inhibition of germination of C. difficile spores (MIC), strain ATCC 43255; settings: Clostridioides difficile, ATCC43255, 1 h, read-out: MIC (minimum concentration that completely inhibits spore germination)
Summary of the method: as §1

[3] = test system: spores of ATCC BBA1870 strain; experiment: Inhibition of germination of C. difficile spores (MIC), strain ATCC BBA1870; settings: Clostridioides difficile, ATCCBBA1870STRAIN, 1 h, read-out: MIC (minimum concentration that completely inhibits spore germination)
Summary of the method: as §1

[4] = strain 630, sodium taurocholate as germinant, BHIS medium, 37° C., OD580 for 60 min
[5] = strain 43255, sodium taurocholate as germinant, BHIS medium, 37° C., OD580 for 60 min
[6] = strain 1870, sodium taurocholate as germinant, BHIS medium, 37° C., OD580 for 60 min

Work on `CC[C@@H](NC(=O)C[C@@H](C)[C@H]1CC[C@H]2[C@@H]3C(=O)C[C@@H]4CC(=O)CC[C@]4(C)[C@H]3CC[C@]12C)c1ccc(N(C)C)s1` [Compound I-203] yielded an MIC [1] of 16 µM (≈ 8.65 µg/mL), an MIC [2] of 32 µM (≈ 17.3 µg/mL) and an MIC [3] of 32 µM (≈ 17.3 µg/mL).
Compound `CC[C@@H](NC(=O)C[C@@H](C)[C@H]1CC[C@H]2[C@@H]3[C@H](OP(=O)(O)O)C[C@@H]4CC(=O)CC[C@]4(C)[C@H]3CC[C@]12C)c1ccc(Cl)s1` [Compound I-191] has an MIC [1, 4] of 64 µM (≈ 39.3 µg/mL), an MIC [2, 5] of 64 µM (≈ 39.3 µg/mL) and an MIC [3, 6] of 64 µM (≈ 39.3 µg/mL).
With `CC(NC(=O)C[C@@H](C)[C@H]1CC[C@H]2[C@@H]3[C@H](O)C[C@@H]4C[C@H](O)CC[C@]4(C)[C@H]3CC[C@]12C)c1ccccc1` (stereo partly drawn) [Compound I-9] the MIC [1, 4] was 8 µM (≈ 3.85 µg/mL), the MIC [2, 5] was 8 µM (≈ 3.85 µg/mL) and the MIC [3, 6] was 8 µM (≈ 3.85 µg/mL).
Compound `CCC(NC(=O)C[C@@H](C)[C@H]1CC[C@H]2[C@@H]3C[C@H](O)[C@@H]4C[C@H](O)CC[C@]4(C)[C@H]3CC[C@]12C)c1cccs1` (stereo partly drawn) [Compound I-125] has an MIC [1, 4] of 2 µM (≈ 1 µg/mL), an MIC [2, 5] of 2 µM (≈ 1 µg/mL) and an MIC [3, 6] of 2 µM (≈ 1 µg/mL).
Compound `CC(C)C(NC(=O)C[C@@H](C)[C@H]1CC[C@H]2[C@@H]3[C@H](O)[C@H](O)[C@@H]4C[C@H](O)CC[C@]4(C)[C@H]3CC[C@]12C)c1cccs1` (stereo partly drawn) [Compound I-119] has an MIC [1, 4] of 32 µM (≈ 17 µg/mL), an MIC [2, 5] of 32 µM (≈ 17 µg/mL) and an MIC [3, 6] of 32 µM (≈ 17 µg/mL).
In the case of `C[C@H](CC(=O)NC(Cc1ccccc1)c1ccccc1)[C@H]1CC[C@H]2[C@@H]3C(=O)C[C@@H]4CC(=O)CC[C@]4(C)[C@H]3CC[C@]12C` (stereo partly drawn) [Compound I-62], the MIC [1] was 128 µM (≈ 70.9 µg/mL), the MIC [2] was 128 µM (≈ 70.9 µg/mL) and the MIC [3] was 256 µM (≈ 142 µg/mL).
With `CCCCCCCCCCCC(NC(=O)C[C@@H](C)[C@H]1CC[C@H]2[C@@H]3C(=O)C[C@@H]4CC(=O)CC[C@]4(C)[C@H]3CC[C@]12C)c1cccs1` (stereo partly drawn) [Compound I-46] the MIC [1, 4] was > 256 µM, the MIC [2, 5] was > 256 µM and the MIC [3, 6] was > 256 µM.
Compound `CC(C)[C@@H](NC(=O)C[C@@H](C)[C@H]1CC[C@H]2[C@@H]3[C@H](OC(=O)CCCCCCC(=O)O)C[C@@H]4CC(=O)CC[C@]4(C)[C@H]3CC[C@]12C)c1ccc(Cl)s1` [Compound I-189] has an MIC [1, 4] of 0.125 µM (≈ 0.0881 µg/mL), an MIC [2, 5] of 0.25 µM (≈ 0.176 µg/mL) and an MIC [3, 6] of 0.25 µM (≈ 0.176 µg/mL).
In the case of `CC(=O)c1ccc([C@H](NC(=O)C[C@@H](C)[C@H]2CC[C@H]3[C@@H]4C(=O)C[C@@H]5CC(=O)CC[C@]5(C)[C@H]4CC[C@]23C)C(C)C)s1` [Compound I-202], the MIC [1, 4] was 32 µM (≈ 17.7 µg/mL), the MIC [2, 5] was 32 µM (≈ 17.7 µg/mL) and the MIC [3, 6] was 32 µM (≈ 17.7 µg/mL).
Work on `C[C@H](CC(=O)NCc1ccccc1)[C@H]1CC[C@H]2[C@@H]3[C@H](O)C[C@@H]4C[C@H](O)CC[C@]4(C)[C@H]3CC[C@]12C` [Compound I-4] yielded an MIC [1, 4] of 8 µM (≈ 3.74 µg/mL), an MIC [2, 5] of 16 µM (≈ 7.48 µg/mL) and an MIC [3, 6] of 32 µM (≈ 15 µg/mL).
`C[C@H](CC(=O)NCc1cccs1)[C@H]1CC[C@H]2[C@@H]3C(=O)C[C@@H]4C[C@H](O)CC[C@]4(C)[C@H]3CC[C@]12C` [Compound I-14] showed an MIC [1, 4] of 4 µM (≈ 1.89 µg/mL), an MIC [2, 5] of 4 µM (≈ 1.89 µg/mL) and an MIC [3, 6] of 4 µM (≈ 1.89 µg/mL).
With `C[C@H](CC(=O)NC(C(=O)O)c1ccccc1)[C@H]1CC[C@H]2[C@@H]3C(=O)C[C@@H]4CC(=O)CC[C@]4(C)[C@H]3CC[C@]12C` (stereo partly drawn) [Compound I-63] the MIC [1, 4] was 256 µM (≈ 130 µg/mL), the MIC [2, 5] was 256 µM (≈ 130 µg/mL) and the MIC [3, 6] was > 256 µM.
`CC(C)[C@@H](NC(=O)C[C@@H](C)[C@H]1CC[C@H]2[C@@H]3[C@H](O)CC4=CC(=O)CC[C@]4(C)[C@H]3CC[C@]12C)c1ccc(Br)s1` [Compound I-156-2] showed an MIC [1, 4] of 0.25 µM (≈ 0.148 µg/mL), an MIC [2, 5] of 0.5 µM (≈ 0.295 µg/mL) and an MIC [3, 6] of 0.25 µM (≈ 0.148 µg/mL).
`CC[C@@H](NC(=O)C[C@@H](C)[C@H]1CC[C@H]2[C@@H]3C(=O)C[C@@H]4CC(=O)CC[C@]4(C)[C@H]3CC[C@]12C)c1ccc(C(C)=O)s1` [Compound I-201] gave an MIC [1, 4] of 32 µM (≈ 17.3 µg/mL), an MIC [2, 5] of 32 µM (≈ 17.3 µg/mL) and an MIC [3, 6] of 32 µM (≈ 17.3 µg/mL).
Compound `CC[C@@H](NC(=O)C[C@@H](C)[C@H]1CC[C@H]2[C@@H]3C(=O)C[C@@H]4CC(=O)CC[C@]4(C)[C@H]3CC[C@]12C)c1ccc(Cl)s1` [Compound I-70] has an MIC [1, 4] of 0.25 µM (≈ 0.133 µg/mL), an MIC [2, 5] of 0.5 µM (≈ 0.266 µg/mL) and an MIC [3, 6] of 0.25 µM (≈ 0.133 µg/mL).
`CC(C)[C@@H](NC(=O)C[C@@H](C)[C@H]1CC[C@H]2[C@@H]3[C@H](O)C[C@@H]4CC(=O)CC[C@]4(C)[C@H]3CC[C@]12C)c1ccc(S(=O)(=O)O)s1` [Compound I-103] showed an MIC [1, 4] of 16 µM (≈ 9.5 µg/mL), an MIC [2, 5] of 16 µM (≈ 9.5 µg/mL) and an MIC [3, 6] of 16 µM (≈ 9.5 µg/mL).

— patent US20230135729A1, “COMPOUND WITH ANTI-SPORE ACTIVITY AND PHARMACEUTICAL COMPOSITION THEREOF” (priority 2020, published 2023)
